The test concerns V1 cortical cells. Type of test: in vivo, rhesus monkeys (Macaca mulatta). As to conditions: for signal-to-noise ratio of cortical cells (response to appropriate stimuli divided by spontaneous discharge rate): FIG. 7; for peak response (maximum visually evoked response) of V1 cortical cells / spontaneous activity of V1 cortical cells: intracortical delivery through microelectrode; for peak response (maximum visually evoked response) of V1 cortical cells: FIG. 5; for spontaneous activity of V1 cortical cells: FIG. 6; for direction selectivity of a representative cortical cell / orientation selectivity of a representative cortical cell / peak response of a representative cortical cell / spontaneous activity of a representative cortical cell: single cell of old monkey, FIG. 10, three minutes after GABA or muscimol application, within five minutes of bicuculline. The source says: Extracellular single-neuron recording techniques were used to examine the stimulus selectivities of VI cells in very old rhesus monkeys showing normal optics and retinogeniculate projections. A total of 187 neurons were studied in 4 young rhesus monkeys (Maraca mulatta), and 254 neurons in 4 old rhesus monkeys. Subjects for physiological experiments were abbreviated as OM1-4 (for old monkey 1-4) and YM1-4 (for young monkey 1-4). Retinal data were obtained from one additional young macaque (YM5, Macaca fascicularis). Multiple ophthalmological exams were conducted to ensure optical and retinal health of all subjects prior to testing.
Subjects for this study were four young adult (7-9 year old) and four very old (28-30 year old) female rhesus monkeys (Macaca mullata). […] Thus, the 28-30 year old monkeys were considered old, whereas the 7-9 year old monkeys were at an age considered sexually mature. Retinal control data for FIG. 1 are provided from one additional young female Macaca facsicularis, which was used in previous studies. Onset latency data from YM4 are published. Monkeys were examined ophthalmoscopically, and no apparent optical or retinal problems were detected that would impair visual function. Retinal blood vessels, lens clarity and the maculae all appeared normal. All cells studied had receptive fields between 2 and 5 degrees from the fovea. Monkeys were prepared for electrophysiological recording using standard techniques consistent with Society for Neuroscience and National Institute of Health guidelines.
Subjects were sedated with Ketamine HC1 (Ketalar, Parke-Davis, Morris Plains, N.J.) and then anesthetized with halothane (5%; Halocarton Laboratories, River Edge, N.J.) in a 70:30 mixture of […]. Intravenous and tracheal cannulae were inserted, the animals were placed in a stereotaxic apparatus, and pressure points and incisions were infiltrated with a long-acting anesthetic (2% lidocaine HCI, Copley Pharmaccuticak, Canton, Mass.). A mixture of D-tubocurarine (0.4 mg per kg per hour) and gallamine triethiodide (7 mg per kg per hour) was infused intravenously to induce and maintain paralysis. Animals were ventilated, and anesthesia was maintained with a mixture of nitrous oxide (75%), oxygen (25%) and halothane (0.25-1.0%) as needed.
A small burr hole was made above the striate cortex (V1), and filled with a 4% solution of agar in saline and sealed with wax. The eyes were protected from desiccation with contact lenses; spectacle lenses and artificial pupils were used when needed to focus the eyes on a tangent screen positioned 228 cm from the retina. The locations of the optic discs and foveae were determined repeatedly during the course of each recording session. No visible deterioration in optics occurred during the experimental period (2-5 days).
Extracellular action potentials of isolated cortical cells were recorded with microelectrodes having impedances of 3-5 MΩ. The electrode was advanced using a hydraulic microdrive (David Kopf instruments, Tojunga, Calif.) to precisely position it. The position of the electrode was confirmed by determining the receptive filed positions of the cortical cells at the recording site. A1 V1 cells studied had receptive fields between about 3 and 7 degrees from the fovea.
After placing the microelectrode as in Example 1, visual stimuli were measured using a Tektronix (Beaverton, Oreg.) 608 display driven by a Picasso (Inning Cambridge, Mass.) image synthesizer and a texture/motion generator (Innisfree). The Picasso and texture/motion generator were computer controlled in conjunction with a hardware and software package from Cambridge Electronics Design (Cambridge, England). The center of the display screen was 171 cm from the animal's retina.
The physiological orientation biases and direction biases of cortical cell were studied quantitatively. The orientation of each drifting stimulus presented was orthogonal to its direction of motion. […]

For `NCCCC(=O)O` [GABA, Gamma-aminobutyric acid], the “direction selectivity of a representative cortical cell” value is “moderate direction selectivity”, the “orientation selectivity of a representative cortical cell” value is recorded as “strong orientation”, the “peak response of a representative cortical cell” value is reported as “peak response decreased” and the “spontaneous activity of a representative cortical cell” value is reported as “decreased as did its spontaneous activity”. Under “old monkeys”, the “signal-to-noise ratio of cortical cells (response to appropriate stimuli divided by spontaneous discharge rate)” value was “increased signal-to-noise ratios dramatically”; the “peak response (maximum visually evoked response) of V1 cortical cells” value was “reduce the peak responses and spontaneous activity of cortical cells to the normal levels seen in young monkeys”; the “spontaneous activity of V1 cortical cells” value is “reduce the peak responses and spontaneous activity of cortical cells to the normal levels seen in young monkeys”. Also, where the note is “old monkeys, FIGS. 8 and 9”, the “number/proportion of orientation and direction selective cells in area V1” value is “very close to what is found in normal young monkeys”. The “time until effects are seen after drug administration” value (old monkeys, intracortical delivery, current 15-50 n amp for 1-3 minutes) was “Three to five minutes”.

`NCc1cc(=O)[nH]o1` [muscimol]: the “direction selectivity of a representative cortical cell” value was “very strong direction selectivity”, the “orientation selectivity of a representative cortical cell” value is listed as “moderate orientation selectivity”, the “peak response of a representative cortical cell” value is on record as “decreased peak response” and the “spontaneous activity of a representative cortical cell” value was “decreased spontaneous activity”. Also, where the note is “old monkeys”, the “signal-to-noise ratio of cortical cells (response to appropriate stimuli divided by spontaneous discharge rate)” value is “increased signal-to-noise ratios dramatically”; the “peak response (maximum visually evoked response) of V1 cortical cells” value is “reduce the peak responses and spontaneous activity of cortical cells to the normal levels seen in young monkeys”; the “spontaneous activity of V1 cortical cells” value is “reduce the peak responses and spontaneous activity of cortical cells to the normal levels seen in young monkeys”. Also, the “time until drug effects wear off after administration ceases” value (old monkeys, intracortical delivery) was “Five minutes after the discontinuation”.

The record behind these values is patent US20040023952A1 (priority 2002, published 2004).
